Measurements as given in the supplement of paper PMC10307832.

How the values were obtained:
Assay in all cases: relative viability (nuclei count vs DMSO), 5 days (fraction); higher = more cells survive
[1] = compound: CC(C)C[C@H](NC(=O)[C@H](CCc1ccccc1)NC(=O)CN1CCOCC1)C(=O)N[C@@H](Cc1ccccc1)C(=O)N[C@@H](CC(C)C)C(=O)[C@@]1(C)CO1 [Carfilzomib] + CCNC(=O)c1noc(-c2cc(C(C)C)c(O)cc2O)c1-c1ccc(CN2CCOCC2)cc1 [Luminespib] (partner 0.01 µM)
Outline: (§1)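 For relative viability, nuclei counts in treated wells were divided by those in vehicle wells. Lung cancer cell lines had been pin-tool dosed in 1536-well plates the day after seeding and cultured for 5 days, then fixed and stained in one step (final 0.05% Triton X-100, 1% formaldehyde, 1 ug/ml Hoechst) and imaged at 4×. Doses were one drug alone or a fixed anchor-drug dose plus five library-drug doses (not always all listed) in √10 steps, and values are duplicate-plate medians.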

[2] = compound: CC(C)C[C@H](NC(=O)[C@H](CCc1ccccc1)NC(=O)CN1CCOCC1)C(=O)N[C@@H](Cc1ccccc1)C(=O)N[C@@H](CC(C)C)C(=O)[C@@]1(C)CO1 [Carfilzomib] + Cc1nc(NC(=O)N2CCC[C@H]2C(N)=O)sc1-c1ccnc(C(C)(C)C(F)(F)F)c1 [Alpelisib] (partner 2 µM)
Outline: as §1

[3] = compound: C[C@@H](Oc1cc(-c2cnn(C3CCNCC3)c2)cnc1N)c1c(Cl)ccc(F)c1Cl [Crizotinib] + CC1(C)CCC(c2ccc(Cl)cc2)=C(CN2CCN(c3ccc(C(=O)NS(=O)(=O)c4ccc(N[C@H](CCN5CCOCC5)CSc5ccccc5)c(S(=O)(=O)C(F)(F)F)c4)cc3)CC2)C1 [Navitoclax] (partner 0.5 µM)
Outline: as §1

[4] = compound: O=C(c1cc(Cc2n[nH]c(=O)c3ccccc23)ccc1F)N1CCN(C(=O)C2CC2)CC1 [Olaparib] + Nc1ncn([C@H]2C[C@H](O)[C@@H](CO)O2)c(=O)n1 [Decitabine] (partner 2 µM)
Outline: as §1

Row | Cell Line | relative viability ([1]; first compound 0.001 µM) | relative viability ([1]; first compound 0.003162 µM) | relative viability ([1]; first compound 0.01 µM) | relative viability ([1]; first compound 0.03162 µM) | relative viability ([1]; first compound 0.1 µM) | relative viability ([2]; first compound 0.001 µM) | relative viability ([2]; first compound 0.003162 µM) | relative viability ([2]; first compound 0.01 µM) | relative viability ([2]; first compound 0.03162 µM) | relative viability ([2]; first compound 0.1 µM) | relative viability ([3]; first compound 0.01 µM) | relative viability ([3]; first compound 0.03162 µM) | relative viability ([3]; first compound 0.1 µM) | relative viability ([3]; first compound 0.3162 µM) | relative viability ([3]; first compound 1 µM) | relative viability ([4]; first compound 0.08 µM) | relative viability ([4]; first compound 0.253 µM) | relative viability ([4]; first compound 2.53 µM) | relative viability ([4]; first compound 8 µM)
1 | 201T | 0.999 | 1.15 | 1.07 | 1.02 | 0.915 | 0.986 | 1.05 | 0.983 | 1.07 | 0.893 | 1.2 | 1.18 | 1.16 | 1.19 | 1.21 | 0.819 | 0.68 | 0.611 | 0.632
2 | A549 |  |  |  |  |  | 0.652 | 0.754 | 0.755 | 0.0509 | 0.04 | 1.22 | 1.15 | 1.19 | 1.17 | 1.18 | 0.119 | 0.073 | 0.0622 | 0.0462
3 | A-427 | 0.837 | 1.18 | 1.05 | 0.141 | 0.112 | 1.07 | 1.07 | 1.06 | 0.699 | 0.1 | 0.95 | 1.03 | 1 |  | 1.02 | 0.471 | 0.478 | 0.483 | 0.404
4 | ABC-1 | 0.581 | 1.35 | 0.246 | 0.193 | 0.141 | 1.16 | 1.09 | 0.636 | 0.246 | 0.267 |  |  |  |  |  | 1.07 |  | 0.836 | 0.718
5 | BEN | 0.287 | 0.528 | 0.258 | 0.248 | 0.175 | 1.04 | 1.22 | 1.12 | 0.83 | 0.499 | 0.0724 | 0.0669 | 0.0752 | 0.0683 | 0.0583 | 0.654 | 0.55 | 0.639 | 0.641
6 | CAL-12T | 0.486 | 0.29 | 0.478 | 0.16 | 0.141 |  | 1.38 | 1.3 | 0.619 | 0.105 | 1.19 | 1.22 | 1.06 | 1.18 | 1.21 |  |  |  | 
7 | COR-L23 | 0.665 | 0.681 | 0.557 | 0.0931 | 0.0743 | 0.735 | 0.879 | 0.709 | 0.0481 | 0.052 | 0.952 | 0.993 | 1.1 | 0.937 | 1.03 | 0.353 | 0.266 | 0.216 | 0.199
8 | COR-L 105 | 0.721 | 0.737 | 0.788 | 0.503 | 0.236 | 1.04 | 1.16 | 0.85 | 0.566 | 0.246 | 0.771 |  | 0.908 | 0.871 | 0.76 | 0.581 | 0.618 | 0.52 | 0.512
9 | Calu-6 |  |  |  |  |  | 0.93 | 1.02 | 0.838 | 0.174 | 0.102 | 0.8 | 0.766 | 0.836 | 0.774 | 0.735 |  |  |  | 
10 | ChaGo-K-1 | 0.581 | 0.747 | 0.587 | 0.523 | 0.171 |  |  |  |  |  | 0.965 | 0.922 | 1.1 |  | 0.854 | 0.45 | 0.43 | 0.355 | 0.329
11 | EBC-1 |  |  |  |  |  | 0.7 | 0.792 | 0.259 | 0.112 | 0.13 | 0.49 | 0.344 | 0.12 | 0.152 | 0.16 |  |  |  | 
12 | EKVX | 0.887 | 0.907 | 0.886 | 0.788 | 0.39 | 0.845 | 1.06 | 0.953 | 0.837 | 0.363 | 0.879 | 1 | 0.95 | 0.871 | 0.961 | 0.238 | 0.276 | 0.337 | 0.276
13 | EMC-BAC-2 | 1.13 | 1.24 | 1.26 | 1.16 | 0.225 | 0.699 | 0.733 | 0.757 | 0.758 | 0.326 | 1.13 | 1.19 | 1.13 | 1.12 | 1.15 | 0.931 | 0.869 | 0.669 | 0.599
14 | EPLC-272H | 0.266 | 0.694 | 0.269 | 0.151 | 0.101 | 0.884 | 1.03 | 0.83 | 0.141 | 0.106 |  | 1.1 | 1.26 | 1.1 | 1.15 | 0.478 | 0.349 | 0.302 | 0.329
15 | H3255 | 0.847 | 0.904 | 0.797 | 0.656 | 0.143 | 0.749 | 0.886 | 0.723 | 0.494 | 0.154 | 0.53 | 0.499 | 0.521 | 0.484 | 0.487 | 0.548 | 0.516 | 0.621 | 0.444
16 | HARA | 0.871 | 0.576 | 0.615 | 0.051 | 0.0562 | 0.79 | 0.857 | 1.07 | 0.0576 | 0.0587 | 1.13 | 1.08 | 1.13 | 1.13 | 1.1 | 0.437 | 0.397 | 0.396 | 0.338
17 | HCC-15 | 0.306 | 0.344 | 0.299 | 0.268 | 0.0676 | 0.855 | 0.914 | 0.86 | 0.506 | 0.0942 | 0.644 | 0.736 | 0.704 | 0.664 | 0.76 | 0.682 | 0.479 | 0.463 | 0.344
18 | HCC-44 | 1.01 | 1.15 | 0.955 | 0.471 | 0.212 | 0.786 | 0.785 | 0.861 | 0.705 | 0.134 | 0.838 | 0.969 | 0.963 | 1.01 | 1.05 | 0.812 | 0.846 | 0.783 | 0.802
